Holding throughout (type): in vivo
Test [1] deals with larvae of the mustard beetle (Phaedon cochleariae). Nature of the test: Phaedon larvae test. The settings on record: 500 ppm active compound, leaf dip. Here is the method:
Solvent: 7 parts by weight of dimethylformamide Emulsifier: 2 parts by weight of alkylaryl polyglycol ether To produce a suitable preparation of active compound, 1 part by weight of active compound is mixed with the stated amounts of solvent and emulsifier, and the concentrate is diluted with emulsifier-containing water to the desired concentration. Cabbage leaves (Brassica oleracea) are treated by being dipped into the preparation of active compound of the desired concentration and are populated with larvae of the mustard beetle (Phaedon cochleariae) while the leaves are still moist.

In test [2] the test system is caterpillars of the army worm (Spodoptera frugiperda). Nature of the test: Spodoptera frugiperda test. The settings on record: 100 ppm active compound, leaf dip. The method, then: Solvent: 7 parts by weight of dimethylformamide
Emulsifier: 2 parts by weight of alkylaryl polyglycol ether
To produce a suitable preparation of active compound, 1 part by weight of active compound is mixed with the stated amounts of solvent and emulsifier, and the concentrate is diluted with emulsifier-containing water to the desired concentration.
Cabbage leaves (Brassica oleracea) are treated by being dipped into the preparation of active compound of the desired concentration and are populated with caterpillars of the army worm (Spodoptera frugiperda) while the leaves are still moist.
After the desired period of time, the kill in % is determined. 100% means that all caterpillars have been killed; 0% means that none of the caterpillars have been killed.

The test system of test [3] is monocotyledonous and dicotyledonous weed and crop plants. Nature of the test: Herbicidal post-emergence action (K). The settings on record: greenhouse, 320 g of a.i./ha, EC formulation. Here is the method:
K. Herbicidal Post-Emergence Action
Seeds of monocotyledonous and dicotyledonous weed and crop plants are placed into sandy loam in wood fibre pots, covered with soil and cultivated in a greenhouse under good growth conditions. 2-3 weeks after sowing, the test plants are treated at the one-leaf stage. The test compounds, formulated as wettable powders (WP) or emulsifiable concentrates (EC), are, in various dosages with a water application rate of 600 l/ha (converted), with 0.2% of wetting agent added, sprayed onto the green parts of the plants. After the test plants were kept in a greenhouse under optimum growth conditions for about 3 weeks, the effect of the preparations is rated visually in comparison to untreated controls (herbicidal effect in percent (%): 100% effect=the plants have died, 0% effect=like controlled plants).

Take `Cc1ccc(-n2cc(Cl)cn2)cc1C1=C(O)C2(CCCCC2)CC1=O` [Ex. I-6-a-1]: the “Kill rate in % after 7 d” value in test [1] is 90%.

In the case of `Cc1ccc(-n2cc(Cl)cn2)cc1C1=C(O)CC(C)(C)CC1=O` [Ex. I-7-a-1], the “Kill rate in % after 7 d” value in test [1] amounted to 100%.

In the case of `COC1CCC2(CC1)NC(=O)C(c1cc(-n3cc(Cl)cn3)ccc1C)=C2O` (stereo not shown) [Ex. I-1-a-1], in test [2], the “Kill rate in % after 7 d” value worked out at 85%. Also, in test [3] (Echinochloa), the “herbicidal effect in percent, Echinochloa” value is recorded as 100%. In addition, the “herbicidal effect in percent, Setaria” value in test [3] (Setaria) turned out to be 100%. The “herbicidal effect in percent, Sorghum” value in test [3] (Sorghum) is reported as 90%. Also, the “herbicidal effect in percent, Sugar beet” value in test [3] (Sugar beet) is reported as 0%.

For the origin of these results see patent publication US7776791B2, “N-heterocyclyl phenyl-substituted cyclic ketoenols” (Bayer CropScience AG, priority 2003, dated 2010).
